ChEMBL document CHEMBL1145883, “Lysine sulfonamides as novel HIV-protease inhibitors: optimization of the Nepsilon-acyl-phenyl spacer” (Bioorg Med Chem Lett, 2003)

Columns and labels:
[1] = target: Human immunodeficiency virus type 1 protease (Human immunodeficiency virus 1, UniProt Q72874); experiment: Inhibitory activity against HIV-1 protease
[2] = test system: Human immunodeficiency virus 1; experiment: Antiviral activity; assay type: functional, organism-based

Structure (SMILES) | Ki [1] | EC50 [2]
Cc1ccc(S(=O)(=O)N(CC(C)C)[C@@H](CCCCNC(=O)NCc2ccccc2)C(=O)O)cc1 | 32 nM | 
Cc1ccc(S(=O)(=O)N(CC(C)C)[C@@H](CCCCNC(=O)C(c2ccccc2)c2ccccc2)C(=O)O)cc1 | 171 nM | 
COc1ccc(CN(CC(=O)NCCCC[C@@H](CO)N(CC(C)C)S(=O)(=O)c2ccc(N)cc2)c2ccccc2)cc1OC | 2.9 nM | 366 nM
Cc1ccc(S(=O)(=O)N(CC(C)C)[C@@H](CCCCNC(=O)OCc2ccccc2)C(=O)O)cc1 | > 300 nM | 
Cc1ccc(S(=O)(=O)N(CC(C)C)[C@@H](CCCCNC(=O)CCc2ccccc2)C(=O)O)cc1 | 6.9 nM | 
Cc1ccc(S(=O)(=O)N(CC(C)C)[C@@H](CCCCNC(=O)C(=O)Cc2ccccc2)C(=O)O)cc1 | 14 nM | 
CC(C)CN([C@H](CO)CCCCNC(=O)CN(Cc1ccccc1)c1ccccc1)S(=O)(=O)c1ccc(N)cc1 | 2.4 nM | 
COc1cccc(CN(CC(=O)NCCCC[C@@H](CO)N(CC(C)C)S(=O)(=O)c2ccc(C)cc2)c2ccccc2)c1OC | 2.4 nM | 760 nM
Cc1ccc(S(=O)(=O)N(CC(C)C)[C@@H](CCCCNC(=O)C2CC2c2ccccc2)C(=O)O)cc1 (stereo partly specified) | > 300 nM | 
Cc1ccc(S(=O)(=O)N(CC(C)C)[C@H](CO)CCCCNC(=O)CN(Cc2ccccc2[N+](=O)[O-])c2ccccc2)cc1 | 3.9 nM | 3500 nM
Cc1ccc(S(=O)(=O)N(CC(C)C)[C@@H](CCCCNC(=O)COc2ccccc2)C(=O)O)cc1 | 18 nM | 
COc1ccc(CN(CC(=O)NCCCC[C@@H](CO)N(CC(C)C)S(=O)(=O)c2ccc(N)cc2)c2ccccc2)cc1 | 2.4 nM | 
Cc1ccc(S(=O)(=O)N(CC(C)C)[C@@H](CCCCNC(=O)N(C)Cc2ccccc2)C(=O)O)cc1 | 55 nM | 
CC(C)CN([C@H](CO)CCCCNC(=O)CN(Cc1cccc(N)c1)c1ccccc1)S(=O)(=O)c1ccc(N)cc1 | 6.9 nM | 524 nM
Cc1ccc(S(=O)(=O)N(CC(C)C)[C@@H](CCCCNC(=O)CN(C)c2ccccc2)C(=O)O)cc1 | 12 nM | 
CC(C)CN([C@H](CO)CCCCNC(=O)CN(Cc1ccccc1[N+](=O)[O-])c1ccccc1)S(=O)(=O)c1ccc(N)cc1 | 1.5 nM | 341 nM
Cc1ccc(S(=O)(=O)N(CC(C)C)[C@H](CO)CCCCNC(=O)CN(CCc2ccccc2)c2ccccc2)cc1 | 52 nM | > 10000 nM
Cc1ccc(S(=O)(=O)N(CC(C)C)[C@@H](CCCCNC(=O)Cc2ccccc2)C(=O)O)cc1 | > 300 nM | 
Cc1ccc(S(=O)(=O)N(CC(C)C)[C@H](CO)CCCCNC(=O)CN(c2ccccc2)C(C)C)cc1 | 16 nM | 1100 nM
COc1ccc(CN(CC(=O)NCCCC[C@@H](CO)N(CC(C)C)S(=O)(=O)c2ccc(C)cc2)c2ccccc2)cc1OC | 3.5 nM | 1300 nM
Cc1ccc(S(=O)(=O)N(CC(C)C)[C@H](CO)CCCCNC(=O)CN(Cc2cccc([N+](=O)[O-])c2)c2ccccc2)cc1 | 1.4 nM | 730 nM
Cc1ccc(S(=O)(=O)N(CC(C)C)[C@@H](CCCCNC(=O)CSc2ccccc2)C(=O)O)cc1 | 18 nM | 

Structure (SMILES) | Ki [1] | EC50 [2]
Cc1ccc(S(=O)(=O)N(CC(C)C)[C@H](CO)CCCCNC(=O)CN(Cc2cccc(N)c2)c2ccccc2)cc1 | 7.6 nM | 3000 nM
Cc1ccc(S(=O)(=O)N(CC(C)C)[C@@H](CCCCNC(=O)CCCc2ccccc2)C(=O)O)cc1 | > 300 nM | 
CC(C)CN([C@H](CO)CCCCNC(=O)CN(Cc1ccc(F)cc1)c1ccccc1)S(=O)(=O)c1ccc(N)cc1 | 2.3 nM | 1000 nM
Cc1ccc(S(=O)(=O)N(CC(C)C)[C@H](CO)CCCCNC(=O)CN(c2ccccc2)c2ccccc2)cc1 | 12 nM | 6700 nM
Cc1ccc(S(=O)(=O)N(CC(C)C)[C@@H](CCCCNC(=O)CN(Cc2ccccc2)c2ccccc2)C(=O)O)cc1 | 0.72 nM | 
Cc1ccc(S(=O)(=O)N(CC(C)C)[C@H](CO)CCCCNC(=O)CN(Cc2ccccc2)c2ccccc2)cc1 | 7.6 nM | 4200 nM
CC(C)CN([C@H](CO)CCCCNC(=O)CN(Cc1cccc(F)c1)c1ccccc1)S(=O)(=O)c1ccc(N)cc1 | 1.1 nM | 1100 nM
Cc1ccc(S(=O)(=O)N(CC(C)C)[C@@H](CCCCNC(=O)C(Cc2ccccc2)C(C)(C)C)C(=O)O)cc1 (stereo partly specified) | > 300 nM | 
Cc1ccc(S(=O)(=O)N(CC(C)C)[C@@H](CCCCNC(=O)/C=C/c2ccccc2)C(=O)O)cc1 | > 300 nM | 
Cc1ccc(S(=O)(=O)N(CC(C)C)[C@@H](CCCCNC(=O)[C@@H](N)Cc2ccccc2)C(=O)O)cc1 | 1.5 nM | 
COc1cccc(CN(CC(=O)NCCCC[C@@H](CO)N(CC(C)C)S(=O)(=O)c2ccc(N)cc2)c2ccccc2)c1OC |  | 340 nM
Cc1ccc(S(=O)(=O)N(CC(C)C)[C@@H](CCCCNC(=O)c2ccccc2)C(=O)O)cc1 | > 300 nM | 
Cc1ccc(S(=O)(=O)N(CC(C)C)[C@@H](CCCCNC(=O)[C@@H](O)Cc2ccccc2)C(=O)O)cc1 | 6.2 nM | 
CC(C)CN([C@H](CO)CCCCNC(=O)CN(Cc1ccccc1F)c1ccccc1)S(=O)(=O)c1ccc(N)cc1 | 2.3 nM | 2200 nM
CN[C@@H](Cc1ccccc1)C(=O)NCCCC[C@@H](C(=O)O)N(CC(C)C)S(=O)(=O)c1ccc(C)cc1 | 2.1 nM | 
CC(C)CN([C@H](CO)CCCCNC(=O)CN(Cc1cccc([N+](=O)[O-])c1)c1ccccc1)S(=O)(=O)c1ccc(N)cc1 | 1.2 nM | 339 nM
Cc1ccc(S(=O)(=O)N(CC(C)C)[C@@H](CCCCNC(=O)N(Cc2ccccc2)Cc2ccccc2)C(=O)O)cc1 | 8 nM | 
Cc1ccc(S(=O)(=O)N(CC(C)C)[C@@H](CCCCNC(=O)CNc2ccccc2)C(=O)O)cc1 | 7.8 nM | 
Cc1ccc(S(=O)(=O)N(CC(C)C)[C@@H](CCCCNC(=O)CS(=O)(=O)c2ccccc2)C(=O)O)cc1 | 20 nM | 
CC(C)CN([C@H](CO)CCCCNC(=O)CN(Cc1ccc([N+](=O)[O-])cc1)c1ccccc1)S(=O)(=O)c1ccc(N)cc1 | 0.59 nM | 540 nM
COc1ccc(CN(CC(=O)NCCCC[C@@H](CO)N(CC(C)C)S(=O)(=O)c2ccc(C)cc2)c2ccccc2)cc1 | 7.3 nM | > 10000 nM
